Assay results as given in ChEMBL document CHEMBL2157869, “N'-substituted-2'-O,3'-N-carbonimidoyl bridged macrolides: novel anti-inflammatory macrolides without antimicrobial activity” (J Med Chem, 2012).
Active and inactive are the calls of the source. The calls are words filed in the database; no cut-off is given here.

What was measured:
[1] = system: Mus musculus; experiment: Antiinflammatory activity in BALB/cJ mouse assessed as inhibition of LPS-induced GM-CSF production in lung homogenates at 200 mg/kg, ip administered 2 hrs prior to LPS challenge; assay type: functional, organism-based; parameters: dose 200 mg/kg
[2] = system: Mus musculus; experiment: Antiinflammatory activity in BALB/cJ mouse assessed as inhibition of LPS-induced CCL2 production in lung homogenates at 200 mg/kg, ip administered 2 hrs prior to LPS challenge; assay type: functional, organism-based; parameters: dose 200 mg/kg
[3] = system: Mus musculus; experiment: Antiinflammatory activity in BALB/cJ mouse assessed as inhibition of LPS-induced IL-1beta production in lung homogenates at 200 mg/kg, ip administered 2 hrs prior to LPS challenge; assay type: functional, organism-based; parameters: dose 200 mg/kg
[4] = Clearance in BALB/cJ mouse at 5 mg/kg, iv and 25 mg/kg, po; assay type: ADME, organism-based; conditions: in vivo
[5] = Volume of distribution at steady state in BALB/cJ mouse at 5 mg/kg, iv and 25 mg/kg, po; assay type: ADME, organism-based; conditions: in vivo, read-out: Vdss
[6] = Half life in BALB/cJ mouse at 5 mg/kg, iv and 25 mg/kg, po; assay type: ADME, organism-based; conditions: in vivo
[7] = Oral bioavailability in BALB/cJ mouse at 25 mg/kg; assay type: ADME, organism-based; conditions: in vivo
[8] = Clearance in Sprague-Dawley rat at 2 mg/kg, iv and 10 mg/kg, po; assay type: ADME, organism-based; conditions: in vivo
[9] = Volume of distribution at steady state in Sprague-Dawley rat at 2 mg/kg, iv and 10 mg/kg, po; assay type: ADME, organism-based; conditions: in vivo, read-out: Vdss
[10] = Half life in Sprague-Dawley rat at 2 mg/kg, iv and 10 mg/kg, po; assay type: ADME, organism-based; conditions: in vivo
[11] = Oral bioavailability in Sprague-Dawley rat at 10 mg/kg; assay type: ADME, organism-based; conditions: in vivo
[12] = system: Streptococcus pyogenes; experiment: Antibacterial activity against Streptococcus pyogenes ATCC 700294 by CLSI broth microdilution method; assay type: functional
[13] = Antiinflammatory activity in mouse splenocytes assessed as inhibition of LPS-induced IL-6 production at 50 uM preincubated for 2 hrs prior to LPS challenge by sandwich ELISA; assay type: functional; conditions: Splenocyte
[14] = Cytotoxicity against human THP1 cells assessed as cell viability at 50 uM after 24 hrs by MTT assay; assay type: cell-based, THP-1; conditions: read-out: Activity
[15] = system: Mus musculus; experiment: Antiinflammatory activity in BALB/cJ mouse assessed as inhibition of LPS-induced TNFalpha level in lung homogenates at 200 mg/kg, ip administered 2 hrs prior to LPS challenge; assay type: functional, organism-based; parameters: dose 200 mg/kg
[16] = system: Mus musculus; experiment: Antiinflammatory activity in BALB/cJ mouse assessed as inhibition of LPS-induced CXCL2 production in lung homogenates at 200 mg/kg, ip administered 2 hrs prior to LPS challenge; assay type: functional, organism-based; parameters: dose 200 mg/kg
[17] = system: Mus musculus; experiment: Antiinflammatory activity in BALB/cJ mouse assessed as inhibition of LPS-induced CXCL1 production in lung homogenates at 200 mg/kg, ip administered 2 hrs prior to LPS challenge; assay type: functional, organism-based; parameters: dose 200 mg/kg
[18] = Antiinflammatory activity in mouse splenocytes assessed as inhibition of LPS-induced IL-6 production in mouse splenocytes at 25 uM preincubated for 2 hrs prior to LPS challenge by sandwich ELISA; assay type: functional; conditions: Splenocyte
[19] = Antiinflammatory activity in mouse splenocytes assessed as inhibition of LPS-induced IL-6 production at 12 uM preincubated for 2 hrs prior to LPS challenge by sandwich ELISA; assay type: functional; conditions: Splenocyte
[20] = system: Mus musculus; experiment: Antiinflammatory activity in ip dosed BALB/cJ mouse assessed as decrease in LPS-induced total cell number in bronchoalveolar lavage fluid administered 2 hrs prior to LPS challenge measured after 24 hrs post LPS challenge; assay type: functional, organism-based; conditions: Lung
[21] = system: Mus musculus; experiment: Antiinflammatory activity in ip dosed BALB/cJ mouse assessed as decrease in LPS-induced neutrophil number in bronchoalveolar lavage fluid administered 2 hrs prior to LPS challenge measured after 24 hrs post LPS challenge; assay type: functional, organism-based; conditions: Lung
[22] = system: Mus musculus; experiment: Antiinflammatory activity in BALB/cJ mouse assessed as inhibition of LPS-induced IL-6 production in lung homogenates at 200 mg/kg, ip administered 2 hrs prior to LPS challenge; assay type: functional, organism-based; parameters: dose 200 mg/kg
[23] = target: T1, Cytochrome P450 3A4 (Homo sapiens, UniProt P08684)
Description: Inhibition of human recombinant CYP3A4 using DEF as substrate preincubated for 5 to 10 mins before substrate addition

[24] = target: T1, Cytochrome P450 3A4; remark: listed apart in the source
Description: Inhibition of human recombinant CYP3A4 using 7-BQ as substrate preincubated for 5 to 10 mins before substrate addition

T1 sequence (P08684 whole entry): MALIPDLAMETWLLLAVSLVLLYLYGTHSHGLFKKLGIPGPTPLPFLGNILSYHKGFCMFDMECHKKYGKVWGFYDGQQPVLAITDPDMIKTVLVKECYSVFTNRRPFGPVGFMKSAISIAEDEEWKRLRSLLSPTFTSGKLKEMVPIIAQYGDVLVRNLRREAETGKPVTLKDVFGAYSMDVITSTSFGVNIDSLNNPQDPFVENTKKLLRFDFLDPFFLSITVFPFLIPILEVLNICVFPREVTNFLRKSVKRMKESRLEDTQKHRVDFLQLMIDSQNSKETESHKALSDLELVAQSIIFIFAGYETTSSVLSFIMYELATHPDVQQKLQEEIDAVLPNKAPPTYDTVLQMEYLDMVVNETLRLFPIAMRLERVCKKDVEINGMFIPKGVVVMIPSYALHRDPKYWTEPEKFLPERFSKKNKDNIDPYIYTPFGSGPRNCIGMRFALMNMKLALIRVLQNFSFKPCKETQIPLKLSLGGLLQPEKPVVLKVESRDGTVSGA

- clearance [4]: 19.8 mL/min/kg
- Vd [5]: 23 L/kg
- half-life [6]: 17.3 h
- bioavailability [7]: 62%
- clearance [8]: 12.3 mL/min/kg
- Vd [9]: 8.6 L/kg
- half-life [10]: 20.3 h
- bioavailability [11]: 33%
- MIC [12]: > 64 µg/mL
- IC50 [23]: 7.8 µM
- IC50 [24]: > 10 µM
Structure (SMILES): CC[C@H]1OC(=O)[C@H](C)[C@@H](O[C@H]2C[C@@](C)(OC)[C@@H](O)[C@H](C)O2)[C@H](C)[C@@H](O[C@@H]2O[C@H](C)C[C@H]3[C@H]2O/C(=N\C(C)C)N3C)[C@](C)(O)C[C@@H](C)CN(C)[C@H](C)[C@@H](O)[C@]1(C)O
- inhibition [1]: Active
- inhibition [2]: Active
- inhibition [3]: Active
- inhibition at 50 µM [13]: 95%
- viability at 24 h, 50 µM [14]: 9%
- inhibition [15]: Active
- inhibition [16]: Active
- inhibition [17]: Active
- inhibition at 25 µM [18]: 90%
- inhibition at 12 µM [19]: 79%
- Activity [20]: Dose-dependent effect
- Activity [21]: Dose-dependent effect
- inhibition [22]: Active
